From ChEMBL document CHEMBL5143625, “Isolation, synthesis and bioactivity evaluation of isoquinoline alkaloids from Corydalis hendersonii Hemsl. against gastric cancer in vitro and in vivo” (Bioorg Med Chem, 2022)
Activity calls are given as the source filed them. The rule behind the calls is not given here.

Legend:
MGC-803 [1] = test: Induction of mitochondrial membrane potential loss in human MGC-803 cells assessed as TMRE positive cells at 1.25 to 10 uM by TRME staining based flow cytometric analysis (reference value: 6.8%); type: functional, cell-based; conditions: dose 1.25-10 µM, DDE = dose-dependent effect
[2] = Cmax in Sprague-Dawley rat at 50 mg/kg, ip measured upto 24 hrs by LC-MS analysis; type: ADME, organism-based; set-up: time < 24 hrs, dose 50 mg/kg, route ip; conditions: in vivo
MGC-803 [3] = test: Induction of apoptosis in human MGC-803 cells assessed as increase in Bax expression at 1.25 to 10 uM by western blot analysis; type: functional, cell-based; conditions: dose 1.25-10 µM, DDE = dose-dependent effect
MGC-803 [4] = test: Down regulation of MMP9 expression in human MGC-803 cells at 1.25 to 10 uM after 24 hrs by western blot analysis; type: functional, cell-based; conditions: dose 1.25-10 µM, DDE = dose-dependent effect
MGC-803 [5] = test: Antitumor activity against human MGC-803 cells xenografted in immunodeficient nude mouse assessed as tumor volume at 50 mg/kg, ip administered for 3 weeks (reference value: 1039.6 mm3); type: functional
HGC-27 [6] = test: Induction of apoptosis in human HGC-27 cells assessed as increase in cleaved caspase-3 expression at 2 to 16 uM by western blot analysis; type: functional, cell-based; conditions: dose 2-16 µM, DDE = dose-dependent effect
HGC-27 [7] = test: Induction of cell cycle arrest in human HGC-27 cells assessed as cells accumulation at G2/M phase at 2 to 16 uM after 48 hrs by propidium iodide staining based flow cytometric analysis (reference value: 5.3%); type: functional; conditions: dose 2-16 µM
MGC-803 [8] = test: Inhibition of PI3K/AKT/mTOR signalling pathway in human MGC-803 cells assessed as reduction in mTOR phosphorylation at 1.25 to 10 uM by western blot analysis; type: cell-based; conditions: dose 1.25-10 µM, DDE = dose-dependent effect
HGC-27 [9] = test: Induction of ROS generation in human HGC-27 cells at 2 to 16 uM by DCFH-DA staining based fluorescence microscopic analysis; type: functional, cell-based; conditions: dose 2-16 µM, DDE = dose-dependent effect
MGC-803 [10] = test: Inhibition of colony formation in human MGC-803 cells at 0.5 to 4 uM after 7 to 10 days by crystal violet staining based assay; type: functional, cell-based; conditions: dose 0.5-4 µM, time 7-10 day, DDE = dose-dependent effect
MGC-803 [11] = test: Antiproliferative activity against human MGC-803 cells assessed as EdU positive cells at 0.5 to 4 uM for 24 hrs by y EdU assay (reference value: 65.2%); type: functional; conditions: dose 0.5-4 µM
HGC-27 [12] = test: Inhibition of cell migration in human HGC-27 cells assessed as reduction in migration at 1 to 8 uM for 24 hrs by transwell migration assay; type: functional, cell-based; conditions: dose 1-8 µM, DDE = dose-dependent effect
MGC-803 [13] = test: Induction of apoptosis in human MGC-803 cells assessed as increase in cleaved caspase-3 expression at 1.25 to 10 uM by western blot analysis; type: functional, cell-based; conditions: dose 1.25-10 µM, DDE = dose-dependent effect
HGC-27 [14] = test: Inhibition of PI3K/AKT/mTOR signalling pathway in human HGC-27 cells assessed as reduction in AKT phosphorylation at 2 to 16 uM by western blot analysis; type: cell-based; conditions: dose 2-16 µM, DDE = dose-dependent effect
MGC-803 [15] = test: Antitumor activity against human MGC-803 cells xenografted in immunodeficient nude mouse assessed as increase in TUNEL positive cells at 50 mg/kg, ip administered for 3 weeks by fluorescence microscopic analysis; type: functional, organism-based
HGC-27 [16] = test: Induction of apoptosis in human HGC-27 cells assessed as increase in Bax expression at 2 to 16 uM by western blot analysis; type: functional, cell-based; conditions: dose 2-16 µM, DDE = dose-dependent effect
HGC-27 [17] = test: Antiproliferative activity against human HGC-27 cells assessed as reduction in cell viability after 24 hrs by MTT assay; type: functional, cell-based; conditions: HGC-27, 24 h
HGC-27 [18] = test: Induction of apoptosis in human HGC-27 cells assessed as decrease in cytochrome C expression at 2 to 16 uM by western blot analysis; type: functional, cell-based; conditions: dose 2-16 µM, DDE = dose-dependent effect
[19] = AUC(0 to t) in Sprague-Dawley rat at 50 mg/kg, ip measured upto 24 hrs by LC-MS analysis; type: ADME, organism-based; set-up: time < 24 hrs, dose 50 mg/kg, route ip; conditions: in vivo

For `Oc1c(Cc2nccc3cc4c(cc23)OCO4)ccc2c1OCO2`, the Activity (MGC-803 [1]) was “Dde”, the Cmax [2] was 8.9 µg/mL and the Activity (MGC-803 [3]) was “Dde”. For the same compound, the Activity (MGC-803 [4]) was “Dde”, the Activity (MGC-803 [5]) was 440.1 mm3 and the Activity (HGC-27 [6]) was “Dde”. The Activity (HGC-27 [7]) was 51.2%, the inhibition (MGC-803 [8]) was “Dde” and the Activity (HGC-27 [9]) was “Dde”. The inhibition (MGC-803 [10]) was “Dde”, the Activity (MGC-803 [11]) was 19.9% and the inhibition (HGC-27 [12]) was “Dde”. The Activity (MGC-803 [13]) was “Dde”, the inhibition (HGC-27 [14]) was “Dde” and the Activity (MGC-803 [15]) was “Active”. For the same compound, the Activity (HGC-27 [16]) was “Dde”, the IC50 (HGC-27 [17]) was 7.6 µM and the Activity (HGC-27 [18]) was “Dde”. The AUC(0-t) at 24 h [19] was 29.5 µg·h/mL.
